Where two headings read alike, the source gives them in different places.
Key:
[1] = tested on: APRI and FIB-4 scores; assay: Study 202 post-hoc APRI and FIB-4 fibrosis index scores; format: in vivo, human
Method: APRI and FIB-4 scores were calculated. Change in score category from baseline (BL) to Weeks 24 and 48 was assessed in patients with non-missing data. Correlations between changes from BL in APRI and FIB-4 scores, and MCP-1 (CCR2 ligand) and sCD14 (inflammatory biomarker) levels were evaluated.

[2] = for SAE: Suicidal ideation, n subjects: through Week 48
Source text: Subjects with a history of HIV-2, hepatitis B and/or C, cirrhosis of the liver or any known active or chronic active liver disease were excluded from the study.
Most AEs were mild or moderate (Grade 1 or Grade 2). […] None of the Grade ≥3 AEs (preferred terms) were reported in more than 1 subject.

[3] = Baseline, CVC pooled 100/200 mg or EFV
[4] = All CVC (N = 115), EFV (N = 28)
[5] = All CVC (N = 115), EFV (N = 28; Grade 4 event)

## CCCCOCCOc1ccc(-c2ccc3c(c2)/C=C(/C(=O)Nc2ccc([S@@+]([O-])Cc4cncn4CCC)cc2)CCCN3CC(C)C)cc1 [CVC, (S)-8-[4-(2-Butoxyethoxy)phenyl]-1-isobutyl-N-(4-{[(1-propyl-1H-imidazol-5-yl)methyl]sulfinyl}phenyl)-1,2,3,4-tetrahydro-1-benzazocine-5-carboxamide]
[1]; Baseline
  Patients in APRI category 0.5-1.5: 14%
  Patients in APRI category >1.5: 2%
  Patients in FIB-4 category 1.45-3.25: 17%
  Patients in FIB-4 category <1.45: 82%
  Patients in FIB-4 category >3.25: 1%
[1]; [3]
  Patients in APRI category <0.5: 84%
[1]; Week 24
  Patients in APRI category 0.5-1.5: 7%
  Patients in APRI category <0.5: 93%
  Patients in FIB-4 category 1.45-3.25: 7%
  Patients in FIB-4 category <1.45: 93%
  Patients with APRI decreased 1 category from baseline: 14%
  Patients with FIB-4 decreased 1 category from baseline: 13%
[1]; Week 48
  Patients in APRI category 0.5-1.5: 8%
  Patients in APRI category <0.5: 91%
  Patients in APRI category >1.5: 1%
  Patients in FIB-4 category 1.45-3.25: 5%
  Patients in FIB-4 category <1.45: 94%
  Patients in FIB-4 category >3.25: 1%
  Patients with APRI decreased 1 category from baseline: 10%
  Patients with FIB-4 decreased 1 category from baseline: 14%
[1]; all CVC-treated subjects (pooled 100 mg and 200 mg)
  Subjects with improvements in APRI and FIB-4 scores over time: ≥ 10%
[2]; All CVC (N = 115)
  Deaths: 0 n
[2]; [4]
  SAE: Suicidal ideation, n subjects: 0
[2]; [5]
  Grade 3 or 4 AE: Suicidal ideation, n subjects: 0
[2]; CVC 100 mg (N = 58)
  Any AE, n subjects: 51
  Any Grade 3 AE, n subjects: 2
  Any Grade 4 AE, n subjects: 0
  Deaths: 0 n
  Grade 3 or 4 AE: Abdominal pain, n subjects: 1
  Grade 3 or 4 AE: Blindness unilateral, n subjects: 0
  Grade 3 or 4 AE: Blood creatine phosphokinase increased, n subjects: 0
  Grade 3 or 4 AE: Cardiac disorders, n subjects: 1
  Grade 3 or 4 AE: Corneal infection, n subjects: 0
  Grade 3 or 4 AE: Suicidal ideation, n subjects: 0
  SAE: Suicidal ideation, n subjects: 0
[2]; CVC 200 mg (N = 57)
  Any AE, n subjects: 48
  Any Grade 3 AE, n subjects: 3
  Any Grade 4 AE, n subjects: 0
  Deaths: 0 n
  Grade 3 or 4 AE: Abdominal pain, n subjects: 0
  Grade 3 or 4 AE: Blindness unilateral, n subjects: 1
  Grade 3 or 4 AE: Blood creatine phosphokinase increased, n subjects: 1
  Grade 3 or 4 AE: Cardiac disorders, n subjects: 0
  Grade 3 or 4 AE: Corneal infection, n subjects: 1
  Grade 3 or 4 AE: Suicidal ideation, n subjects: 0
  SAE: Suicidal ideation, n subjects: 0
[2]; human, in vivo, 48 week
  Grade 3 or 4 AE: Blood creatine phosphokinase increased, n subjects: 1
  Grade 3 or 4 AE: Cardiac disorders, n subjects: 1
  Grade 3 or 4 AE: Depression, n subjects: 0
  Grade 3 or 4 AE: Ear and labyrinth disorders, n subjects: 0
  Grade 3 or 4 AE: Investigations, n subjects: 1
  Grade 3 or 4 AE: Palpitations, n subjects: 1
  Grade 3 or 4 AE: Psychiatric disorders, n subjects: 1
  Grade 3 or 4 AE: Stress, n subjects: 1
  Grade 3 or 4 AE: Weight decreased, n subjects: 0
[2]; human, in vivo, 48 weeks
  AE Abnormal dreams, n subjects: 9
  AE Depression, n subjects: 3
  AE Diarrhoea, n subjects: 17
  AE Dizziness, n subjects: 11
  AE Fatigue, n subjects: 14
  AE Headache, n subjects: 16
  AE Insomnia, n subjects: 7
  AE Lymphadenopathy, n subjects: 7
  AE Nasopharyngitis, n subjects: 10
  AE Nausea, n subjects: 18
  AE Rash, n subjects: 14
  AE Syphilis, n subjects: 1
  AE Upper respiratory tract infection, n subjects: 18
  AE leading to discontinuation: Abnormal dreams, n subjects: 0
  AE leading to discontinuation: Aggression, n subjects: 1
  AE leading to discontinuation: Anxiety, n subjects: 0
  AE leading to discontinuation: Depression, n subjects: 1
  AE leading to discontinuation: Dermatitis allergic, n subjects: 0
  AE leading to discontinuation: Disturbance in attention, n subjects: 0
  AE leading to discontinuation: Dizziness, n subjects: 0
  AE leading to discontinuation: Ear and labyrinth disorders, n subjects: 0
  AE leading to discontinuation: Eye disorders, n subjects: 0
  AE leading to discontinuation: Gastrointestinal disorders, n subjects: 0
  AE leading to discontinuation: General disorders and administration site conditions, n subjects: 1
  AE leading to discontinuation: Hypoaesthesia, n subjects: 0
  AE leading to discontinuation: Insomnia, n subjects: 0
  AE leading to discontinuation: Malaise, n subjects: 1
  AE leading to discontinuation: Musculoskeletal and connective tissue disorders, n subjects: 0
  AE leading to discontinuation: Musculoskeletal discomfort, n subjects: 0
  AE leading to discontinuation: Nausea, n subjects: 0
  AE leading to discontinuation: Nervous system disorders, n subjects: 0
  AE leading to discontinuation: Photophobia, n subjects: 0
  AE leading to discontinuation: Psychiatric disorders, n subjects: 1
  AE leading to discontinuation: Rash, n subjects: 0
  AE leading to discontinuation: Skin and subcutaneous tissue disorders, n subjects: 0
  AE leading to discontinuation: Tachyphrenia, n subjects: 0
  AE leading to discontinuation: Thinking abnormal, n subjects: 1
  AE leading to discontinuation: Tinnitus, n subjects: 0
  Any AE leading to discontinuation of study drug, n subjects: 1
  Any AE, n subjects: 99
  Any Grade 3 AE, n subjects: 5
  Any Grade 4 AE, n subjects: 0
  Any SAE, n subjects: 2
  Grade 3 or 4 AE: Abdominal pain, n subjects: 1
  Grade 3 or 4 AE: Blindness unilateral, n subjects: 1
  Grade 3 or 4 AE: Corneal infection, n subjects: 1
  Grade 3 or 4 AE: Dermatitis allergic, n subjects: 0
  Grade 3 or 4 AE: Eye disorders, n subjects: 1
  Grade 3 or 4 AE: Gastrointestinal disorders, n subjects: 1
  Grade 3 or 4 AE: General disorders and administration site conditions, n subjects: 1
  Grade 3 or 4 AE: Infections and infestations, n subjects: 1
  Grade 3 or 4 AE: Pyrexia, n subjects: 1
  Grade 3 or 4 AE: Skin and subcutaneous tissue disorders, n subjects: 0
  Grade 3 or 4 AE: Tinnitus, n subjects: 0
  SAE: Blindness unilateral, n subjects: 1
  SAE: Corneal infection, n subjects: 1
  SAE: Depression, n subjects: 0
  SAE: Eye disorders, n subjects: 1
  SAE: Gastroenteritis, n subjects: 1
  SAE: Infections and infestations, n subjects: 2
  SAE: Psychiatric disorders, n subjects: 0
  Subjects who experienced a Grade ≥3 AE: 4%
  Subjects with AEs, worst grade severity Grade 4: 0 n

## O=C1Nc2ccc(Cl)cc2[C@@](C#CC2CC2)(C(F)(F)F)O1 [EFV, efavirenz, reference compound]
[1]; Baseline
  Patients in APRI category 0.5-1.5: 4%
  Patients in FIB-4 category <1.45: 100%
[1]; [3]
  Patients in APRI category <0.5: 96%
[1]; Week 24
  Patients in APRI category <0.5: 100%
  Patients in FIB-4 category <1.45: 100%
  Patients with APRI decreased 1 category from baseline: 5%
[1]; Week 48
  Patients in APRI category <0.5: 100%
  Patients in FIB-4 category 1.45-3.25: 6%
  Patients in FIB-4 category <1.45: 94%
  Patients with APRI decreased 1 category from baseline: 6%
[2]; [4]
  SAE: Suicidal ideation, n subjects: 1
[2]; [5]
  Grade 3 or 4 AE: Suicidal ideation, n subjects: 1
[2]; EFV (N = 28)
  Deaths: 0 n
[2]; human, in vivo, 48 week
  Grade 3 or 4 AE: Blood creatine phosphokinase increased, n subjects: 0
  Grade 3 or 4 AE: Cardiac disorders, n subjects: 0
  Grade 3 or 4 AE: Depression, n subjects: 1
  Grade 3 or 4 AE: Ear and labyrinth disorders, n subjects: 1
  Grade 3 or 4 AE: Investigations, n subjects: 1
  Grade 3 or 4 AE: Palpitations, n subjects: 0
  Grade 3 or 4 AE: Psychiatric disorders, n subjects: 1
  Grade 3 or 4 AE: Stress, n subjects: 0
  Grade 3 or 4 AE: Weight decreased, n subjects: 1
[2]; human, in vivo, 48 weeks
  AE Abnormal dreams, n subjects: 6
  AE Depression, n subjects: 3
  AE Diarrhoea, n subjects: 3
  AE Dizziness, n subjects: 8
  AE Fatigue, n subjects: 1
  AE Headache, n subjects: 0
  AE Insomnia, n subjects: 4
  AE Lymphadenopathy, n subjects: 4
  AE Nasopharyngitis, n subjects: 1
  AE Nausea, n subjects: 6
  AE Rash, n subjects: 5
  AE Syphilis, n subjects: 3
  AE Upper respiratory tract infection, n subjects: 2
  AE leading to discontinuation: Abnormal dreams, n subjects: 1
  AE leading to discontinuation: Aggression, n subjects: 0
  AE leading to discontinuation: Anxiety, n subjects: 1
  AE leading to discontinuation: Depression, n subjects: 1
  AE leading to discontinuation: Dermatitis allergic, n subjects: 1
  AE leading to discontinuation: Disturbance in attention, n subjects: 1
  AE leading to discontinuation: Dizziness, n subjects: 2
  AE leading to discontinuation: Ear and labyrinth disorders, n subjects: 1
  AE leading to discontinuation: Eye disorders, n subjects: 1
  AE leading to discontinuation: Gastrointestinal disorders, n subjects: 1
  AE leading to discontinuation: General disorders and administration site conditions, n subjects: 0
  AE leading to discontinuation: Hypoaesthesia, n subjects: 1
  AE leading to discontinuation: Insomnia, n subjects: 3
  AE leading to discontinuation: Malaise, n subjects: 0
  AE leading to discontinuation: Musculoskeletal and connective tissue disorders, n subjects: 1
  AE leading to discontinuation: Musculoskeletal discomfort, n subjects: 1
  AE leading to discontinuation: Nausea, n subjects: 1
  AE leading to discontinuation: Nervous system disorders, n subjects: 4
  AE leading to discontinuation: Photophobia, n subjects: 1
  AE leading to discontinuation: Psychiatric disorders, n subjects: 3
  AE leading to discontinuation: Rash, n subjects: 1
  AE leading to discontinuation: Skin and subcutaneous tissue disorders, n subjects: 2
  AE leading to discontinuation: Tachyphrenia, n subjects: 1
  AE leading to discontinuation: Thinking abnormal, n subjects: 0
  AE leading to discontinuation: Tinnitus, n subjects: 1
  Any AE leading to discontinuation of study drug, n subjects: 6
  Any AE, n subjects: 27
  Any Grade 3 AE, n subjects: 3
  Any Grade 4 AE, n subjects: 1
  Any SAE, n subjects: 1
  Grade 3 or 4 AE: Abdominal pain, n subjects: 0
  Grade 3 or 4 AE: Blindness unilateral, n subjects: 0
  Grade 3 or 4 AE: Corneal infection, n subjects: 0
  Grade 3 or 4 AE: Dermatitis allergic, n subjects: 1
  Grade 3 or 4 AE: Eye disorders, n subjects: 0
  Grade 3 or 4 AE: Gastrointestinal disorders, n subjects: 0
  Grade 3 or 4 AE: General disorders and administration site conditions, n subjects: 0
  Grade 3 or 4 AE: Infections and infestations, n subjects: 0
  Grade 3 or 4 AE: Pyrexia, n subjects: 0
  Grade 3 or 4 AE: Skin and subcutaneous tissue disorders, n subjects: 1
  Grade 3 or 4 AE: Tinnitus, n subjects: 1
  SAE: Blindness unilateral, n subjects: 0
  SAE: Corneal infection, n subjects: 0
  SAE: Depression, n subjects: 1
  SAE: Eye disorders, n subjects: 0
  SAE: Gastroenteritis, n subjects: 0
  SAE: Infections and infestations, n subjects: 0
  SAE: Psychiatric disorders, n subjects: 1
  Subjects who experienced a Grade ≥3 AE: 15%
